Results reported in patent US8415299B2, “Methods for improved avian performance” (priority 2004, dated 2013).
Read-outs that look alike come from different tables or passages of the source. Marks after values point to notes of the source that are not given here.

Assays:
turkey hens = details: cited from earlier work
Bovans caged laying hens = experiment: Experiment 6: molting of caged laying hens with dietary L-thyroxine or thyroactive iodinated casein; type: in vivo, chickens; details: for 9 Jun. 2005 (9th d Trt) Body Wt Change: 10 hours of light daily; for 25 May 2005 Initial Body Wt: before 7-day pretest
Text: Experiment 6. Molting of Caged Laying with Dietary L-Thyroxine or Thyroactive Iodinated Casein
In Experiment 6, a conventional feed withdrawal molting procedure was compared with 5 dietary thyroxine treatments. Body weight loss after 9 days was greater, days to 0% egg production (9 days) shorter, ovary plus oviduct weight numerically lighter on day 9 of treatment, but eggs collected on day 4 of treatment had thinner shells, in the feed withdrawal group.

[1] = system: Cobb broiler breeder hens and roosters; type: in vivo
Text: Molting Cobb Broiler Breeder Hens and Roosters with Dietary Thyroxine.

In the case of `N[C@@H](Cc1cc(I)c(Oc2cc(I)c(O)c(I)c2)c(I)c1)C(=O)O` [L-thyroxine, 3,5,3′,5′-tetraiodothyronine], the “Time out of egg production after treatment” value (turkey hens; 2 mg/hen/day i.m. (Lien and Siopes 1993)) is listed as 4 weeks, the Egg laying (turkey hens; 3 mcg/mL water (600 to 900 mcg/bird/day), 20 to 25 week old turkey females (Bilezikian et al. 1980)) is listed as “rarely lay eggs” and the “9 Jun. 2005 (9th d Trt) Body Wt Change” value (Bovans caged laying hens; 20 mg T4/kg diet) is listed as −0.50^b lb. The “25 May 2005 Initial Body Wt” value (Bovans caged laying hens; 20 mg T4/kg diet) was 3.49 lb, the “Days to 0% egg production” value (Bovans caged laying hens; 40 mg T4/kg diet) was 11 days and the “Weight loss” value (Bovans caged laying hens; 40 mg T4/kg diet) was −0.54 lb. For the same molecule, the “9 Jun. 2005 (9th d Trt) Body Wt Change” value (Bovans caged laying hens; 40 mg T4/kg diet) was −0.60^b lb, the “25 May 2005 Initial Body Wt” value (Bovans caged laying hens; 40 mg T4/kg diet) was 3.57 lb and the Tolerance in roosters ([1]; 25 or 40 mg/kg diet, roosters began to stroke blood from the nostrils) was “males were unable to tolerate these levels of L-thyroxine”. For the same molecule, the “# Eggs per pen” value ([1]; 25 ppm feed from 22-Sep, pen 50, 1-Nov) was 0, the “# Eggs per pen” value ([1]; 25 ppm feed from 22-Sep, pen 50, 1-Oct) was 3 and the “# Eggs per pen” value ([1]; 25 ppm feed from 22-Sep, pen 50, 2-Nov) was 0. For the same molecule, the “# Eggs per pen” value ([1]; 25 ppm feed from 22-Sep, pen 50, 2-Oct) was 1, the “# Eggs per pen” value ([1]; 25 ppm feed from 22-Sep, pen 50, 3-Nov) was 0 and the “# Eggs per pen” value ([1]; 25 ppm feed from 22-Sep, pen 50, 3-Oct) was 0. For the same molecule, the “# Eggs per pen” value ([1]; 25 ppm feed from 22-Sep, pen 50, 4-Nov) was 0, the “# Eggs per pen” value ([1]; 25 ppm feed from 22-Sep, pen 50, 4-Oct) was 1 and the “# Eggs per pen” value ([1]; 25 ppm feed from 22-Sep, pen 50, 5-Oct) was 1. The “# Eggs per pen” value ([1]; 25 ppm feed from 22-Sep, pen 50, 6-Oct) was 0, the “# Eggs per pen” value ([1]; 25 ppm feed from 22-Sep, pen 50, 7-Oct) was 0 and the “# Eggs per pen” value ([1]; 25 ppm feed from 22-Sep, pen 50, 8-Oct) was 3. For the same molecule, the “# Eggs per pen” value ([1]; 25 ppm feed from 22-Sep, pen 50, 9-Oct) was 1, the “# Eggs per pen” value ([1]; 25 ppm feed from 22-Sep, pen 50, 10-Oct) was 0 and the “# Eggs per pen” value ([1]; 25 ppm feed from 22-Sep, pen 50, 11-Oct) was 0. The “# Eggs per pen” value ([1]; 25 ppm feed from 22-Sep, pen 50, 12-Oct) was 0, the “# Eggs per pen” value ([1]; 25 ppm feed from 22-Sep, pen 50, 13-Oct) was 0 and the “# Eggs per pen” value ([1]; 25 ppm feed from 22-Sep, pen 50, 14-Oct) was 0. For the same molecule, the “# Eggs per pen” value ([1]; 25 ppm feed from 22-Sep, pen 50, 15-Oct) was 0, the “# Eggs per pen” value ([1]; 25 ppm feed from 22-Sep, pen 50, 16-Oct) was 0 and the “# Eggs per pen” value ([1]; 25 ppm feed from 22-Sep, pen 50, 16-Sep) was 15. The “# Eggs per pen” value ([1]; 25 ppm feed from 22-Sep, pen 50, 17-Oct) was 0, the “# Eggs per pen” value ([1]; 25 ppm feed from 22-Sep, pen 50, 17-Sep) was 14 and the “# Eggs per pen” value ([1]; 25 ppm feed from 22-Sep, pen 50, 18-Oct) was 0. The “# Eggs per pen” value ([1]; 25 ppm feed from 22-Sep, pen 50, 18-Sep) was 11, the “# Eggs per pen” value ([1]; 25 ppm feed from 22-Sep, pen 50, 19-Oct) was 0 and the “# Eggs per pen” value ([1]; 25 ppm feed from 22-Sep, pen 50, 19-Sep) was 17. For the same molecule, the “# Eggs per pen” value ([1]; 25 ppm feed from 22-Sep, pen 50, 20-Oct) was 0, the “# Eggs per pen” value ([1]; 25 ppm feed from 22-Sep, pen 50, 20-Sep) was 15 and the “# Eggs per pen” value ([1]; 25 ppm feed from 22-Sep, pen 50, 21-Oct) was 0. The “# Eggs per pen” value ([1]; 25 ppm feed from 22-Sep, pen 50, 21-Sep) was 14, the “# Eggs per pen” value ([1]; 25 ppm feed from 22-Sep, pen 50, 22-Oct) was 0 and the “# Eggs per pen” value ([1]; 25 ppm feed from 22-Sep, pen 50, 22-Sep) was 14. The “# Eggs per pen” value ([1]; 25 ppm feed from 22-Sep, pen 50, 23-Oct) was 0, the “# Eggs per pen” value ([1]; 25 ppm feed from 22-Sep, pen 50, 23-Sep) was 19 and the “# Eggs per pen” value ([1]; 25 ppm feed from 22-Sep, pen 50, 24-Oct) was 0. For the same molecule, the “# Eggs per pen” value ([1]; 25 ppm feed from 22-Sep, pen 50, 24-Sep) was 7, the “# Eggs per pen” value ([1]; 25 ppm feed from 22-Sep, pen 50, 25-Oct) was 0 and the “# Eggs per pen” value ([1]; 25 ppm feed from 22-Sep, pen 50, 25-Sep) was 8. For the same molecule, the “# Eggs per pen” value ([1]; 25 ppm feed from 22-Sep, pen 50, 26-Oct) was 0, the “# Eggs per pen” value ([1]; 25 ppm feed from 22-Sep, pen 50, 26-Sep) was 9 and the “# Eggs per pen” value ([1]; 25 ppm feed from 22-Sep, pen 50, 27-Oct) was 0. For the same molecule, the “# Eggs per pen” value ([1]; 25 ppm feed from 22-Sep, pen 50, 27-Sep) was 4, the “# Eggs per pen” value ([1]; 25 ppm feed from 22-Sep, pen 50, 28-Oct) was 0 and the “# Eggs per pen” value ([1]; 25 ppm feed from 22-Sep, pen 50, 28-Sep) was 3. For the same molecule, the “# Eggs per pen” value ([1]; 25 ppm feed from 22-Sep, pen 50, 29-Oct) was 0, the “# Eggs per pen” value ([1]; 25 ppm feed from 22-Sep, pen 50, 29-Sep) was 1 and the “# Eggs per pen” value ([1]; 25 ppm feed from 22-Sep, pen 50, 30-Oct) was 0. For the same molecule, the “# Eggs per pen” value ([1]; 25 ppm feed from 22-Sep, pen 50, 30-Sep) was 0, the “# Eggs per pen” value ([1]; 25 ppm feed from 22-Sep, pen 50, 31-Oct) was 0 and the “# Eggs per pen” value ([1]; 40 ppm feed from 22-Sep, pen 51, 1-Nov) was 1. For the same molecule, the “# Eggs per pen” value ([1]; 40 ppm feed from 22-Sep, pen 51, 1-Oct) was 1, the “# Eggs per pen” value ([1]; 40 ppm feed from 22-Sep, pen 51, 2-Nov) was 3 and the “# Eggs per pen” value ([1]; 40 ppm feed from 22-Sep, pen 51, 2-Oct) was 0. For the same molecule, the “# Eggs per pen” value ([1]; 40 ppm feed from 22-Sep, pen 51, 3-Nov) was 3, the “# Eggs per pen” value ([1]; 40 ppm feed from 22-Sep, pen 51, 3-Oct) was 0 and the “# Eggs per pen” value ([1]; 40 ppm feed from 22-Sep, pen 51, 4-Nov) was 5. The “# Eggs per pen” value ([1]; 40 ppm feed from 22-Sep, pen 51, 4-Oct) was 0, the “# Eggs per pen” value ([1]; 40 ppm feed from 22-Sep, pen 51, 5-Oct) was 0 and the “# Eggs per pen” value ([1]; 40 ppm feed from 22-Sep, pen 51, 6-Oct) was 0. The “# Eggs per pen” value ([1]; 40 ppm feed from 22-Sep, pen 51, 7-Oct) was 0, the “# Eggs per pen” value ([1]; 40 ppm feed from 22-Sep, pen 51, 8-Oct) was 0 and the “# Eggs per pen” value ([1]; 40 ppm feed from 22-Sep, pen 51, 9-Oct) was 0. For the same molecule, the “# Eggs per pen” value ([1]; 40 ppm feed from 22-Sep, pen 51, 10-Oct) was 0, the “# Eggs per pen” value ([1]; 40 ppm feed from 22-Sep, pen 51, 11-Oct) was 0 and the “# Eggs per pen” value ([1]; 40 ppm feed from 22-Sep, pen 51, 12-Oct) was 0. For the same molecule, the “# Eggs per pen” value ([1]; 40 ppm feed from 22-Sep, pen 51, 13-Oct) was 0 and the “# Eggs per pen” value ([1]; 40 ppm feed from 22-Sep, pen 51, 14-Oct) was 0.
